Assay results reported in patent US20260347333A1, “NOVEL COMPOUND AND USE THEREOF” (PROTIER BIOTECH INC., priority 2023, published 2026).

Molecular target: T1, Cereblon (CRBN) protein (Homo sapiens, UniProt Q96SW2)
T1 construct: DNA label for qPCR detection (not a peptide tag); host or cells: HEK-293
Test: CRBN binding affinity, E3scan (% Ctrl)
Conditions: lower % Ctrl = stronger binding, DMSO 100% Ctrl
Description: As used herein, the term “Cereblon (CRBN)” refers to a protein encoded by a human CRBN gene located at a cytogenetic location of 3p26.2 and a molecular location between base pairs 3,148,489 and 3,179,716 on chromosome 3 (UCSC Genome Browser on Human, December 2013 (GRCh38/hg38) assembly). CRBN is a substrate recognition component of a DCX (DDB1-CUL4-X-box) E3 protein ligase complex mediating ubiquitination and subsequent proteasomal degradation of a target protein. The DCX (DDB1-CUL4-X-box) E3 protein ligase complex may comprise at least CRBN, CUL4A, DDB1, and RBX1. The CRBN protein has two isoforms generated by alternative splicing: isoform 1 has 442 amino acids and a molecular weight of 50,546 Da; and isoform 2 has 441 amino acids and a molecular weight of 50,475 Da.
To confirm the binding affinity of the compounds synthesized in the Preparation Examples for a Cereblon (CRBN) protein, the following experiment was performed using E3scan™ from Eurofins.
Specifically, CRBN was produced using a HEK-293 cell line and labeled with DNA for qPCR detection. Streptavidin-coated magnetic beads were treated with a biotinylated small-molecule ligand at room temperature for 30 minutes to generate an affinity resin for E3scan analysis. The liganded beads were blocked with excess biotin and washed with a blocking buffer (SeaBlock (Pierce), 1% BSA, 0.05% Tween 20, 1 mM DTT) to remove unbound ligands and prevent non-specific binding. […] The test compound was prepared as a 100× stock in 100% DMSO and diluted directly into the assay solution. All reactions were performed in a polypropylene 384-well plate with a final reaction volume of 0.02 mL. […] Then, the beads were resuspended in an elution buffer (1×PBS, 0.05% Tween 20, 0.5 μM non-biotinylated affinity ligand) and incubated with shaking at room temperature for 30 minutes. The CRBN concentration in the eluate was measured by qPCR. […] A lower ‘% Ctrl’ indicates a stronger binding affinity.

T1 sequence (Q96SW2 whole entry): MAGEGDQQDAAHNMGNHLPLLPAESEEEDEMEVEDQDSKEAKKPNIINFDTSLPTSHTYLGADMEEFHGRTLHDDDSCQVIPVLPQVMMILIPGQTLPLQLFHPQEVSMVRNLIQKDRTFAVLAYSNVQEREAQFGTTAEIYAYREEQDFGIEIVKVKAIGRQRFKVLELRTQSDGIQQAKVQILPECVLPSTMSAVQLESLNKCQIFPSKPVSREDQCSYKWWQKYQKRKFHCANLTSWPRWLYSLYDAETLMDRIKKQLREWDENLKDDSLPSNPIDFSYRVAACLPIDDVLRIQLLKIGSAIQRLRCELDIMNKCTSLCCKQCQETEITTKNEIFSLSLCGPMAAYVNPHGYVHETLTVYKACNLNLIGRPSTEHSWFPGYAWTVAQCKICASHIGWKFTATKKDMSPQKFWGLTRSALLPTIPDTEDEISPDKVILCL

First: O=C1CCC(N2Cc3cc(C(=O)c4cn(-c5ccccc5)c5ccccc45)ccc3C2=O)C(=O)N1 (stereo not shown) [Compound 35, 3-(1-oxo-5-(1-phenyl-1H-indole-3-carbonyl)isoindolin-2-yl)piperidine-2,6-dione]
Second: O=C1CCC(N2Cc3cc(C(=O)c4cn(-c5ccccc5)c5ccc(-c6ccccc6)cc45)ccc3C2=O)C(=O)N1 (stereo not shown) [Compound 25, 3-(5-(1,5-diphenyl-1H-indole-3-carbonyl)-1-oxoisoindolin-2-yl)piperidine-2,6-dione]
The remaining activity at 5 µM of the first is lower: 0 to 0.1% for the first, 10 to 35% for the second.

`O=C1CCC(N2Cc3cc(C(=O)c4cccc(Nc5ccccc5)c4)ccc3C2=O)C(=O)N1` (stereo not shown) [Compound 16, 3-(1-oxo-5-(3-(phenylamino)benzoyl)isoindolin-2-yl)piperidine-2,6-dione] and `O=C1CCC(N2Cc3cc(C(=O)c4ccc(Nc5ccccc5)cc4)ccc3C2=O)C(=O)N1` (stereo not shown) [Compound 15, 3-(1-oxo-5-(4-(phenylamino)benzoyl)isoindolin-2-yl)piperidine-2,6-dione] fall in the same range of remaining activity at 5 µM: 0 to 0.1% for the first, 0 to 0.1% for the second.

`O=C1CCC(N2Cc3cc(C(=O)c4cc(-c5ccccc5)cs4)ccc3C2=O)C(=O)N1` (stereo not shown) [Compound 30, 3-(1-oxo-5-(4-phenylthiophene-2-carbonyl)isoindolin-2-yl)piperidine-2,6-dione] and `O=C1CCC(N2Cc3cc(C(=O)c4cc(-c5ccccc5)c[nH]4)ccc3C2=O)C(=O)N1` (stereo not shown) [Compound 27, 3-(1-oxo-5-(4-phenyl-1H-pyrrole-2-carbonyl)isoindolin-2-yl)piperidine-2,6-dione] fall in the same range of remaining activity at 5 µM: 0 to 0.1% for the first, 0 to 0.1% for the second.

First: O=C1CCC(N2Cc3cc(C(=O)c4ccccc4)ccc3C2=O)C(=O)N1 (stereo not shown) [Compound 1, 3-(5-benzoyl-1-oxoisoindolin-2-yl)piperidine-2,6-dione]
Second: O=C1CCC(N2Cc3cc(C(=O)c4cccc(-c5ccccc5)c4)ccc3C2=O)C(=O)N1 (stereo not shown) [Compound 26, 3-(5-([1,1′-biphenyl]-3-carbonyl)-1-oxoisoindolin-2-yl)piperidine-2,6-dione]
The remaining activity at 5 µM of the first is higher: 1 to 10% for the first, 0 to 0.1% for the second.

`CNc1ccc2cc(C(=O)c3ccc4c(c3)CN(C3CCC(=O)NC3=O)C4=O)[nH]c2c1` (stereo not shown) [Compound 22, 3-(5-(6-(methylamino)-1H-indole-2-carbonyl)-1-oxoisoindolin-2-yl)piperidine-2,6-dione] and `O=C1CCC(N2Cc3cc(C(=O)c4cc5ccccc5[nH]4)ccc3C2=O)C(=O)N1` (stereo not shown) [Compound 3, 3-(5-(1H-indole-2-carbonyl)-1-oxoisoindolin-2-yl)piperidine-2,6-dione] fall in the same range of remaining activity at 5 µM: 0 to 0.1% for the first, 0 to 0.1% for the second.

`O=C1CCC(N2Cc3cc(C(=O)N4CCCC4)ccc3C2=O)C(=O)N1` (stereo not shown) [Compound 7, 3-(1-oxo-5-(pyrrolidine-1-carbonyl)isoindolin-2-yl)piperidine-2,6-dione] and `O=C1CCC(N2Cc3cc(C(=O)N4Cc5ccccc5C4)ccc3C2=O)C(=O)N1` (stereo not shown) [Compound 36] fall in the same range of remaining activity at 5 µM: 0 to 0.1% for the first, 0 to 0.1% for the second.

`O=C1CCC(N2Cc3cc(C(=O)n4ncc5ccccc54)ccc3C2=O)C(=O)N1` (stereo not shown) [Compound 6, 3-(5-(1H-indazole-1-carbonyl)-1-oxoisoindolin-2-yl)piperidine-2,6-dione] and `O=C1CCC(N2Cc3cc(C(=O)c4cc5ccccc5o4)ccc3C2=O)C(=O)N1` (stereo not shown) [Compound 34, 3-(5-(benzofuran-2-carbonyl)-1-oxoisoindolin-2-yl)piperidine-2,6-dione] fall in the same range of remaining activity at 5 µM: 0 to 0.1% for the first, 0 to 0.1% for the second.

Compared with `O=C1CCC(N2Cc3cc(C(=O)C4CCN(Cc5ccccc5)CC4)ccc3C2=O)C(=O)N1` (stereo not shown) [Compound 11, 3-(5-(1-benzylpiperidine-4-carbonyl)-1-oxoisoindolin-2-yl)piperidine-2,6-dione], `O=C1CCC(N2Cc3cc(C(=O)c4coc5ccccc45)ccc3C2=O)C(=O)N1` (stereo not shown) [Compound 37, 3-(5-(benzofuran-3-carbonyl)-1-oxoisoindolin-2-yl)piperidine-2,6-dione] is higher in remaining activity at 5 µM: 0 to 0.1% for the first, 1 to 10% for the second.

First: O=C1CCC(N2Cc3cc(C(=O)c4n[nH]c5ccccc45)ccc3C2=O)C(=O)N1 (stereo not shown) [Compound 17, 3-(5-(1H-indazole-3-carbonyl)-1-oxoisoindolin-2-yl)piperidine-2,6-dione]
Second: O=C1CCC(N2Cc3cc(C(=O)c4c[nH]c5ccccc45)ccc3C2=O)C(=O)N1 (stereo not shown) [Compound 4, 3-(5-(1H-indole-3-carbonyl)-1-oxoisoindolin-2-yl)piperidine-2,6-dione]
The remaining activity at 5 µM of the first is lower: 0 to 0.1% for the first, 0.1 to 1% for the second.

First: O=C1CCC(N2Cc3cc(C(=O)c4ccc(-c5ccccc5)[nH]4)ccc3C2=O)C(=O)N1 (stereo not shown) [Compound 28, 3-(1-oxo-5-(5-phenyl-1H-pyrrole-2-carbonyl)isoindolin-2-yl)piperidine-2,6-dione]
Second: O=C1CCC(N2Cc3cc(C(=O)c4c[nH]c5ccc(-c6ccccc6)cc45)ccc3C2=O)C(=O)N1 (stereo not shown) [Compound 24, 3-(1-oxo-5-(5-phenyl-1H-indole-3-carbonyl)isoindolin-2-yl)piperidine-2,6-dione]
The remaining activity at 5 µM of the first is lower: 1 to 10% for the first, 10 to 35% for the second.

`O=C1CCC(N2Cc3cc(C(=O)c4ccc5cn[nH]c5c4)ccc3C2=O)C(=O)N1` (stereo not shown) [Compound 21, 3-(5-(1H-indazole-6-carbonyl)-1-oxoisoindolin-2-yl)piperidine-2,6-dione] and `O=C1CCC(N2Cc3cc(C(=O)c4ccccn4)ccc3C2=O)C(=O)N1` (stereo not shown) [Compound 12, 3-(1-oxo-5-picolinoylisoindolin-2-yl)piperidine-2,6-dione] fall in the same range of remaining activity at 5 µM: 0 to 0.1% for the first, 0 to 0.1% for the second.

First: O=C1CCC(N2Cc3cc(C(=O)N4Cc5cccc6cccc4c56)ccc3C2=O)C(=O)N1 (stereo not shown) [Compound 31, 3-(5-(1,2-dihydrobenzo[cd]indole-1-carbonyl)-1-oxoisoindolin-2-yl)piperidine-2,6-dione]
Second: O=C1CCC(N2Cc3nc(C(=O)c4ccccc4)ccc3C2=O)C(=O)N1 (stereo not shown) [Compound 5, 3-(2-benzoyl-5-oxo-5,7-dihydro-6H-pyrrolo[3,4-b]pyridin-6-yl)piperidine-2,6-dione]
The remaining activity at 5 µM of the first is lower: 0 to 0.1% for the first, 1 to 10% for the second.

With `O=C1CCC(N2C(=O)c3ccc(C(=O)c4cc5ccccc5[nH]4)cc3C2=O)C(=O)N1` (stereo not shown) [Compound 10, 2-(2,6-dioxopiperidin-3-yl)-5-(1H-indole-2-carbonyl)isoindoline-1,3-dione] the remaining activity at 5 µM was 1 to 10%.
